Values joined by “and” are separate entries in the source; they are usually repeats but may differ in a detail not shown here. Equal entries are not always repeated.
System: Rh18 complex spheroid viability, percent test/control
Assay: Anticancer human tumor Rh18 cell line growth inhibition [Asc];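 note: spheroids exposed to compound for 7 days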;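 for viability, T/C: 100% = DMSO vehicle control wells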
Conditions: for viability, T/C: stronger effect = lower value; active = viability on the fitted dose curve at most 10% of control; inactive = the rest
In short: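 Complex spheroids combining tumor cells with HUVEC endothelial cells and human MSCs, at 37 degrees C, 5% CO2; agents tested alone or combined, half-log dilutions from at or near clinical Cmax, or 10 microM if Cmax unknown.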

[1] = curve of first compound, second compound 0.1 µM
[2] = curve of first compound, second compound 0.316 µM
[3] = curve of first compound, second compound 1 µM
[4] = curve of first compound, second compound 3.16 µM
[5] = curve of first compound, second compound 10 µM

Cc1nc(N2CCC3(CC2)COC(C)C3N)c(CO)nc1Sc1ccnc(N)c1Cl (configuration not stated) + Cc1c(S(C)(=O)=O)c(-c2cc(F)cc(N3CCN(c4ccc(NS(=O)(=O)c5ccc(NC(CCN6CCC(C(=O)OCCCP(=O)(O)O)CC6)CSc6ccccc6)c(S(=O)(=O)C(F)(F)F)c5)cc4)CC3)c2)c(-c2ccc(Cl)cc2)n1C(C)C
inactive: viability, T/C (second compound 0.1 µM, first compound 0.00949 µM) 11.9% | viability, T/C (second compound 0.1 µM, first compound 0.03 µM) 11.6%
< 9.49 nM: IC50 [1] | IC50 [2] | IC50 [3] | IC50 [4] | IC50 [5]
active: viability, T/C (second compound 0.1 µM, first compound 0.0949 µM) 11.1% | viability, T/C (second compound 0.1 µM, first compound 0.3 µM) 7.3% | viability, T/C (second compound 0.1 µM, first compound 0.949 µM) 7.66% | viability, T/C (second compound 0.1 µM, first compound 3 µM) 5.44% | viability, T/C (second compound 0.316 µM, first compound 0.00949 µM) 8.93% | viability, T/C (second compound 0.316 µM, first compound 0.03 µM) 9.76% | viability, T/C (second compound 0.316 µM, first compound 0.0949 µM) 7.87% | viability, T/C (second compound 0.316 µM, first compound 0.3 µM) 5.11% | viability, T/C (second compound 0.316 µM, first compound 0.949 µM) 5.06% | viability, T/C (second compound 0.316 µM, first compound 3 µM) 4.22% | viability, T/C (second compound 1 µM, first compound 0.00949 µM) 7.05% | viability, T/C (second compound 1 µM, first compound 0.03 µM) 7.01% | viability, T/C (second compound 1 µM, first compound 0.0949 µM) 6.81% | viability, T/C (second compound 1 µM, first compound 0.3 µM) 4.44% | viability, T/C (second compound 1 µM, first compound 0.949 µM) 4.09% | viability, T/C (second compound 1 µM, first compound 3 µM) 2.1% | viability, T/C (second compound 3.16 µM, first compound 0.00949 µM) 4.29% | viability, T/C (second compound 3.16 µM, first compound 0.03 µM) 6.13% | viability, T/C (second compound 3.16 µM, first compound 0.0949 µM) 4.92% | viability, T/C (second compound 3.16 µM, first compound 0.3 µM) 3.71% | viability, T/C (second compound 3.16 µM, first compound 0.949 µM) 2.47% | viability, T/C (second compound 3.16 µM, first compound 3 µM) 2.4% | viability, T/C (second compound 10 µM, first compound 0.00949 µM) 4.54% | viability, T/C (second compound 10 µM, first compound 0.03 µM) 4.83% | viability, T/C (second compound 10 µM, first compound 0.0949 µM) 3.89% | viability, T/C (second compound 10 µM, first compound 0.3 µM) 3.77% | viability, T/C (second compound 10 µM, first compound 0.949 µM) 2.82% | viability, T/C (second compound 10 µM, first compound 3 µM) 1.96%

C=CC(=O)N1CCN(c2nc(=O)n(-c3c(C)ccnc3C(C)C)c3nc(-c4c(O)cccc4F)c(F)cc23)C(C)C1 (configuration not stated)
inactive: viability, T/C (compound 0.0316 µM) 117% and 122% and 92.1% | viability, T/C (compound 0.1 µM) 95.2% and 169% and 115% | viability, T/C (compound 0.316 µM) 106% and 125% and 109% | viability, T/C (compound 1 µM) 118% (2×) and 104% | viability, T/C (compound 3.16 µM) 133% and 137% and 106% | viability, T/C (compound 10 µM) 115% and 89.8% and 92%
> 10000 nM: IC50 (curve of compound)

C=C(F)C(=O)N1CCN(c2nc(OCC3CCCN3C)nc3c2CCN(c2cccc4cccc(Cl)c24)C3)CC1CC#N (configuration not stated) + Cc1c(S(C)(=O)=O)c(-c2cc(F)cc(N3CCN(c4ccc(NS(=O)(=O)c5ccc(NC(CCN6CCC(C(=O)OCCCP(=O)(O)O)CC6)CSc6ccccc6)c(S(=O)(=O)C(F)(F)F)c5)cc4)CC3)c2)c(-c2ccc(Cl)cc2)n1C(C)C
inactive: viability, T/C (second compound 0.1 µM, first compound 0.0316 µM) 13.9% | viability, T/C (second compound 0.1 µM, first compound 0.1 µM) 14.1% | viability, T/C (second compound 0.1 µM, first compound 0.316 µM) 16.8% | viability, T/C (second compound 0.1 µM, first compound 1 µM) 18.4% | viability, T/C (second compound 0.316 µM, first compound 0.0316 µM) 6.98% | viability, T/C (second compound 1 µM, first compound 0.0316 µM) 7.24%
< 31.6 nM: IC50 [1] | IC50 [2] | IC50 [3] | IC50 [4] | IC50 [5]
active: viability, T/C (second compound 0.1 µM, first compound 3.16 µM) 4.57% | viability, T/C (second compound 0.1 µM, first compound 10 µM) 0.19% | viability, T/C (second compound 0.316 µM, first compound 0.1 µM) 8.95% | viability, T/C (second compound 0.316 µM, first compound 0.316 µM) 10.2% | viability, T/C (second compound 0.316 µM, first compound 1 µM) 10.4% | viability, T/C (second compound 0.316 µM, first compound 3.16 µM) 1.87% | viability, T/C (second compound 0.316 µM, first compound 10 µM) 0.13% | viability, T/C (second compound 1 µM, first compound 0.1 µM) 8.76% | viability, T/C (second compound 1 µM, first compound 0.316 µM) 10.9% | viability, T/C (second compound 1 µM, first compound 1 µM) 8.02% | viability, T/C (second compound 1 µM, first compound 3.16 µM) 0.6% | viability, T/C (second compound 1 µM, first compound 10 µM) 0.14% | viability, T/C (second compound 3.16 µM, first compound 0.0316 µM) 7.34% | viability, T/C (second compound 3.16 µM, first compound 0.1 µM) 7.03% | viability, T/C (second compound 3.16 µM, first compound 0.316 µM) 8.15% | viability, T/C (second compound 3.16 µM, first compound 1 µM) 4.6% | viability, T/C (second compound 3.16 µM, first compound 3.16 µM) 0.19% | viability, T/C (second compound 3.16 µM, first compound 10 µM) 0.18% | viability, T/C (second compound 10 µM, first compound 0.0316 µM) 4.96% | viability, T/C (second compound 10 µM, first compound 0.1 µM) 5.5% | viability, T/C (second compound 10 µM, first compound 0.316 µM) 5.96% | viability, T/C (second compound 10 µM, first compound 1 µM) 4.82% | viability, T/C (second compound 10 µM, first compound 3.16 µM) 0.38% | viability, T/C (second compound 10 µM, first compound 10 µM) 0.23%

Source: PubChem BioAssay AID1963431 (Molecular Pharmacology Branch, DTP, NCI, 2024)
